SMILES | melting point
CC(=NOCCOc1ccc(C[C@H](Oc2ccc(C(C)(C)C)cc2)C(=O)O)cc1)c1ccc(-c2ccccn2)cc1 | 148 to 150 °C
Cc1cc2[nH]cc(CSCCN3CC=C(c4ccccc4)CC3)c2cc1C | 123 to 124 °C
C=Cc1ncn2c1CN(C)C(=O)c1c(Cl)cccc1-2 | 205 to 207 °C
CCNC(=O)c1nnc(S)o1 | 210 °C
Clc1cnc(Oc2cccc(Oc3ncc(Cl)cn3)c2)nc1 | 120 °C
O=C(Oc1ccc2c(OC(=O)c3ccc(O)c(Cl)c3)c3ccccc3cc2c1OC(=O)c1ccc(O)c(Cl)c1)c1ccc(O)c(Cl)c1 | 238 °C
C=C(c1ccc(C#N)cc1)c1cncs1 | 71 to 73 °C
Oc1ccc(Sc2nnc3cc(Cl)ccc3n2)cc1 | 238 °C
O=C(CCl)Nc1ccc(NNC(=O)c2ccccc2CO)cc1 | 172 to 173 °C
CN1C=Cc2ccccc2CC1=O | 81 to 82 °C
CCCCOc1c(CNC(=O)OC(C)(C)C)n(CC(C)C)c(=O)c2ccc(-c3nc(C)c(C#N)s3)cc12 | 148 to 150 °C
CCOc1cc(OCC)c2c(C)c(CCCl)c(=O)oc2c1 | 123 to 126 °C
CN(C)CCOc1ccc(CNC(=O)c2ccc(S(N)(=O)=O)cc2)cc1 | 174 °C
CCn1c2ccccc2c2cc(NC(=O)OC)ncc21 | 213 to 214 °C
COc1ccc(S(=O)(=O)N2C(=O)C(c3ccccc3OC)(N3CCC[C@H]3C(=S)N(C)C)c3cc(Cl)ccc32)c(OC)c1 (some centres not stated) | 164 °C
Cc1cc(C)nc(NC(=O)NS(=O)(=O)c2ccsc2C2=CC(=O)CCC2)n1 | 190 to 192 °C
O=C(O)C1CCc2c(c3ccccc3n2Cc2ccccc2)C1 (configuration not stated) | 195 to 196 °C
CCCc1nc(C=NNC(=O)OCC)c[nH]1 | 180 to 182 °C
Fc1ccc2[nH]c3c4c(Cl)cccc4nc-3cc2c1 | 201 to 204 °C
Fc1ccccc1-c1nc2ncncc2[nH]1 | 267 to 271 °C
COc1ccccc1N(CCN1CCC(C(=O)c2ccc(F)cc2)CC1)C(=O)c1ccc([N+](=O)[O-])cc1 | 166 to 168 °C
COc1ccc2[nH]c(C(=O)N3CC(CCl)c4c3cc(N)c3ccccc43)cc2c1 (configuration not stated) | 250 to 255 °C
COc1ccccc1NC(=O)Nc1nc(Nc2ccccc2-c2ccccc2)nc(N(CCC(=O)O)Cc2cccs2)n1 | 115 to 120 °C
OCCCn1c(C2CCCCC2)nc2cc(Cl)ccc21 | 95 °C

SMILES | melting point
CC(Oc1ccc(N(C)c2nc3cc(Cl)ccc3o2)cc1)C(=O)O (configuration not stated) | 152 to 154 °C
COc1nn(-c2cccc(N(C)C(C)=O)c2)c(=O)n(Cc2ccc(Cl)cc2)c1=O | 157 °C
OC1C[C@H]2CN(C3=Nc4cc(Cl)ccc4Oc4ccccc43)CCN2C1 (some centres not stated) | 90 to 92 °C
CC(C)(O)c1cc(OCc2ccccc2)cc(C(C)(C)O)c1 | 146 to 147 °C
COc1cccc2c(=O)c3c(O)cc(OCC4CS4)cc3oc12 (configuration not stated) | 187 °C
O=C(CCc1ccccc1)c1cc2ccncc2[nH]1 | 246 to 250 °C
N#Cc1c(N2CCCCC2)cc(-c2ccc3ccc4cccc5ccc2c3c45)c2c1C(=O)c1ccccc1-2 | 180 to 182 °C
COc1ccc(N2CCN(Cc3cc4ccccc4[nH]c3=O)CC2)cc1 | 263 to 266 °C
COc1cc(N)c2nccc(C)c2c1OCCCCc1ccccc1 | 59 to 59.5 °C
CSc1cncc(-c2nc(=O)c3ccccc3s2)n1 | 202 to 203 °C
CNC(=S)C1(c2ccccn2)OCCCS1 (configuration not stated) | 157 °C
Cn1nc(-c2c(F)cccc2Cl)nc1-c1sc(Br)c(Cl)c1Cl | 178 to 180 °C
N#Cc1ncn2c(C(F)(F)F)cc(-c3ccccc3)nc12 | 202 °C
CN1C(=O)NCc2cc(Br)cnc21 | 216 to 217 °C
CC(=O)Nc1ccc([N+](=O)[O-])cc1OCC1CO1 (configuration not stated) | 164 °C
Cc1nn(-c2cc(F)c(C#N)cc2F)c(C)c1Cl | 153 °C
O=c1c2ccccc2sc2cc(F)ccc12 | 168 °C
O=C1Nc2ccc(Cl)cc2C1(NCCO)c1ccccc1Cl (configuration not stated) | 198 to 200 °C
CCCN(CCC)C(=O)Cc1cn(Cc2ccccc2Br)c2ccccc12 | 118 to 119 °C
Cc1ccc(S(=O)(=O)N2CCOC(C)(C)C2)cc1 | 95 to 97 °C
N#Cc1cc(C2=Nc3ccc(-n4cccc4)cc3NC(=O)C2)ccn1 | 243 to 244 °C
NCc1ccc(C2CCN(c3nc4c(cc3F)c(=O)c(C(=O)O)cn4C3CC3)C2)cc1 (configuration not stated) | 268 to 272 °C
CN(CCOc1ccc(CCOCCc2ncno2)cc1)c1nc2ccccc2o1 | 89 to 90 °C
COCCCS(=O)(=O)NC(=O)CC(C)c1ccc(OCCOC)cc1Oc1ncc(C(F)(F)F)cc1Cl (configuration not stated) | 107 to 109 °C

SMILES | melting point
CCOc1cccc(-c2nc(-c3ccccc3COC(=O)OCc3ccccc3-c3n[nH]c(-c4cccc(OCC)c4)n3)n[nH]2)c1 | 143 to 145 °C
Cn1cnc(C=CC(=O)NC2CCNC(=O)C2)c1 (configuration not stated) | 280 to 282 °C
CCN(CC)CCNc1nc2ccccc2n(-c2ccc(Cl)cc2)c1=O | 96 to 98 °C
CCCCCCCCCCCCCCCCCCOc1cccc(C(=O)C(=O)O)c1 | 77 to 79 °C
O=C(CCCl)c1cc2c(s1)CCCC2 | 51 to 53 °C
O=C(OCCCCl)c1ccc([N+](=O)[O-])cc1[N+](=O)[O-] | 40 °C
CC(C)c1ccc(CNc2ccc(S(=O)(=O)O)cc2)cc1 | > 275 °C
COC(=O)c1ccc(-c2cc(=O)c3ccc(N)cc3o2)cc1 | > 260 °C
CC(C)(O)C#Cc1c(F)c(F)c(-c2c(F)c(F)c(C#CC(C)(C)O)c(F)c2F)c(F)c1F | 119 to 121 °C
O=C1c2ccccc2C(=O)N1CC(=O)N1c2ccccc2N(CCc2ccccc2)C(=O)[C@H]2CCC[C@H]21 (relative stereo) | 178 to 179 °C
COC(=O)c1cncn1C1c2ccccc2C(=O)CC1(C)C (configuration not stated) | 93 to 95 °C
COCC1=C(c2ccccc2)C(=O)N(C(C)(C)C(=O)OC(C)(C)C)CO1 | 65 to 67 °C
CC(=NNC(=N)N)c1sc(-c2ccc(-c3ccccc3)cc2)nc1C | 278 to 280 °C
CC(C)(CCCCC(=O)CCCCC1(C(=O)O)CC1)C(=O)O | 49 to 52 °C
COc1ccc(NC(=O)C23CC4CC(CC(C4)C2)C3)cc1 | 181 to 184 °C
COC(=O)c1ccc(CSc2c(C(N)=O)sc3ccc(OC)cc23)cc1 | 150 to 152 °C
O=c1ccccn1C1=CC(CF)(CF)Oc2ccc(C(F)(F)F)cc21 | 139 to 140 °C
CNC(CNC(=O)c1nc(Cl)c(N)nc1N)CC(=O)NCCN (configuration not stated) | 106 to 109 °C
Cc1cc(C)c(N[C@@H](C)C(=O)O)c(C)c1 | 318 to 320 °C
Cn1nc(C(F)F)c(C=O)c1F | 68 °C
CN(C)C(=O)N(CCl)c1ccc(Cl)cc1 | 37 to 43 °C
CN(C)CCCC1(O)c2ccccc2C=Cn2cc(C#N)cc21 (configuration not stated) | 123 to 126 °C
CCCc1nc2c(N)nc3ccccc3c2n1CCCCC(=O)N1CCOCC1 | 178 to 179 °C
CCCCCNC(=O)[C@@H]1CCCN1C(=O)[C@H](C)NC(=O)CC | 105 to 108 °C

— a melting point compilation (Tetko et al.; mined from patent text by program, amines drawn as free bases though some values may be those of a salt)
